Test results taken from patent US20210260010A1, “COMPOSITIONS AND METHODS FOR THE REDUCTION OR TREATMENT OF INFLAMMATION” (AXCELLA HEALTH INC., priority 2018, published 2021).

Tests used:
IL-6 = IL-6 cytokine secretion by TNFα-stimulated primary human hepatic stellate cells (ELISA); assay type: cell-based; conditions: for IL-6 cytokine secretion, per-cell normalized, fold change from plasma amino acid background: primary human hepatic stellate cells, two donors, TNFα 3 ng/mL, 12 hours
Protocol: Primary human hepatic stellate cells were obtained from Samsara Sciences and grown in Complete HSC Medium to […] confluence in T75 or T150 flasks below passage 10 were seeded into 96-well plates and incubated for 6 hours at 37° C., 5% CO2 in a humidified incubator. After 6 hours, plates were removed from the incubator washed with DPBS and pretreated (±single amino acid dropout, ±supplemental amino acid dose; see experiment for medium composition) overnight, ˜14-15 hours. After overnight pretreatment, the medium was removed from the cells, and the same pretreatment medium, now supplemented with 3 ng/mL TNFα was applied. Plates were incubated for 12 hours at 37° C., 5% CO2. After 12 hour stimulus with TNFα, supernatant was removed and frozen at −80° C. in two separate aliquots. Plates were washed and incubated with CCK-8 viability reagent (Dojindo) for 1 hour. Viability was measured on the Synergy plate reader. Immediately, the medium was removed and the plates were fixed for immunofluorescence staining.
Human CCL2/MCP1 and Human IL-6 were measured by ELISA (Human […] DuoSet ELISA, R&D Systems; Human IL-6 DuoSet ELISA, R&D Systems) at ⅕ and 1/20 dilution in 1× Reagent Diluent (Reagent Ancillary Kit 2, R&D Systems). Data were normalized to the specific per well cell density determined by Hoechst stained nuclei count.
Tables 39-42 show per-cell normalized IL-6 cytokine secretion in primary human hepatic stellate cells from two donors as a fold change from the plasma amino acid background. Statistical significance calculated by one-way ANOVA with Dunnett's multiple comparison test within each treatment group.

CCL18 = assay: IL-4 induced CCL18 secretion in primary human monocyte-derived macrophages (ELISA); assay type: cell-based; conditions: for Donor 1 CCL18 Measurements Mean / Donor 2 CCL18 Measurements Mean: relative to vehicle control; for CCL18 Measurements: Mean (fold change relative to vehicle control): Donor 3, IL-4 induced; for IL-4 induced CCL18 secretion (fold change relative to vehicle control): macrophages
Protocol: Lymphocytes were purified from unpurified buffy coats (Research Blood Components) using Lymphocyte Separation Medium (Corning). After centrifugation, the PBMC layer was extracted and rinsed several times using Dulbecco's phosphate-buffered saline (DPBS; Gibco). After straining PBMCs through a 70 uM cell strainer, cells were resuspended and counted using a Cellometer K2 automated cell counter.
CD14+ cells were selected using EasySep™ Human CD14 Positive Selection Kit II ([…] Technologies) according to manufacturer-supplied protocols. Following isolation CD14+ cells were seeded into 10 cm tissue culture plates and differentiated into macrophages using M-CSF (Peprotech).
On day 0, primary human PBMC derived macrophages were seeded in Dulbecco's Modified Eagle Medium (DMEM) (Gibco) supplemented with penicillin-streptomycin (Hyclone) and 10% heat inactivated fetal bovine serum (HI-FBS) (Atlanta Bio) into 96-well microplates (ThermoFisher) and incubated overnight at 37° C., 5% CO2. On day 1, cells were washed once with DPBS and then treated with: • a. Amino acid free DMEM (US Biologicals) containing a defined custom amino acid concentration based on the mean physiological concentrations in blood based on values published in the Human Metabolome Database (HMDB), with 6 mM glucose, 1 mM sodium pyruvate, 10 mM HEPES, penicillin-streptomycin; or • b. The same medium described above with one amino acid or amino acid combination at various concentrations
On day 2, cells were treated with the same mediums described above supplemented with recombinant human interleukin-4 (IL-4; Peprotech). Control wells were treated with tofacitinib (Tocris) and IL-4, PBS with IL-4, or phosphate buffered saline (PBS) alone.
On day 3, the supernatant was collected and immediately frozen in −80° C. freezer. Cells were washed once with DPBS and viability was assessed using the WST-8 Cell Proliferation Cytotoxicity Assay (Dojindo) according to manufacturer-supplied protocol. Following the assay, cells were washed twice with PBS and fixed with 4% paraformaldehyde. Protein levels in supernatant samples were analyzed by ELISA for CCL18 using commercially available kits (R&D Systems) according to manufacturer-supplied protocols.

## CC(C)[C@H](N)C(=O)O [Valine, L-Valine]
IL-6; donor 1, Conc. 234 μM (plasma background, reference)
  Fold Change IL-6 Secretion Normalized Per Cell: 1.0000
IL-6; donor 2, Conc. 234 μM (plasma background, reference)
  Fold Change IL-6 Secretion Normalized Per Cell: 1.0000
IL-6
  IL-6 cytokine secretion, per-cell normalized, fold change from plasma amino acid background: no significant effect
CCL18; Donor 1, Conc. 234 μM
  Donor 1 CCL18 Measurements Mean: 1.109 fold change
CCL18; Donor 1, Conc. 4684 μM
  Donor 1 CCL18 Measurements Mean: 1.264 fold change
CCL18; Donor 1, Conc. 11710 μM
  Donor 1 CCL18 Measurements Mean: 1.442 fold change
CCL18; Donor 1, Conc. 23420 μM
  Donor 1 CCL18 Measurements Mean: 0.9491 fold change
CCL18; Donor 2, Conc. 234 μM
  Donor 2 CCL18 Measurements Mean: 1.255 fold change
CCL18; Donor 2, Conc. 4684 μM
  Donor 2 CCL18 Measurements Mean: 1.545 fold change
CCL18; Donor 2, Conc. 11710 μM
  Donor 2 CCL18 Measurements Mean: 1.998 fold change
CCL18; Donor 2, Conc. 23420 μM
  Donor 2 CCL18 Measurements Mean: 2.269 fold change
CCL18; Conc. 234 μM
  CCL18 Measurements: Mean (fold change relative to vehicle control): 0.7896 fold change
CCL18; Conc. 4684 μM
  CCL18 Measurements: Mean (fold change relative to vehicle control): 0.9781 fold change
CCL18; Conc. 11710 μM
  CCL18 Measurements: Mean (fold change relative to vehicle control): 0.9976 fold change
CCL18; Conc. 23420 μM
  CCL18 Measurements: Mean (fold change relative to vehicle control): 1.082 fold change
CCL18; Donor 2
  IL-4 induced CCL18 secretion (fold change relative to vehicle control): significantly increased

## CC(=O)N[C@@H](CS)C(=O)O [NAC, N-acetylcysteine]
IL-6; donor 1, Conc. 5 X
  Fold Change IL-6 Secretion Normalized Per Cell: 0.7141
IL-6; donor 1, Conc. 10 X
  Fold Change IL-6 Secretion Normalized Per Cell: 0.7354
IL-6; donor 1, Conc. 20 X
  Fold Change IL-6 Secretion Normalized Per Cell: 0.6121
IL-6; donor 1, Conc. 40 X
  Fold Change IL-6 Secretion Normalized Per Cell: 0.5716
IL-6; donor 2, Conc. 5 X
  Fold Change IL-6 Secretion Normalized Per Cell: 0.9161
IL-6; donor 2, Conc. 10 X
  Fold Change IL-6 Secretion Normalized Per Cell: 0.9180
IL-6; donor 2, Conc. 20 X
  Fold Change IL-6 Secretion Normalized Per Cell: 0.8111
IL-6; donor 2, Conc. 40 X
  Fold Change IL-6 Secretion Normalized Per Cell: 0.7064
IL-6
  IL-6 cytokine secretion, per-cell normalized, fold change from plasma amino acid background: reduced IL-6 secretion in both donors but was only statistically significant in one of two donors
CCL18; Donor 1, Conc. 4 X
  Donor 1 CCL18 Measurements Mean: 1.831 fold change
CCL18; Donor 1, Conc. 10 X
  Donor 1 CCL18 Measurements Mean: 1.979 fold change
CCL18; Donor 1, Conc. 20 X
  Donor 1 CCL18 Measurements Mean: 2.206 fold change
CCL18; Donor 1, Conc. 40 X
  Donor 1 CCL18 Measurements Mean: 2.464 fold change
CCL18; Donor 2, Conc. 5 X
  Donor 2 CCL18 Measurements Mean: 1.326 fold change
CCL18; Donor 2, Conc. 10 X
  Donor 2 CCL18 Measurements Mean: 1.293 fold change
CCL18; Donor 2, Conc. 20 X
  Donor 2 CCL18 Measurements Mean: 1.169 fold change
CCL18; Donor 2, Conc. 40 X
  Donor 2 CCL18 Measurements Mean: 1.517 fold change
CCL18; Conc. 5 X
  CCL18 Measurements: Mean (fold change relative to vehicle control): 1.324 fold change
CCL18; Conc. 10 X
  CCL18 Measurements: Mean (fold change relative to vehicle control): 1.67 fold change
CCL18; Conc. 20 X
  CCL18 Measurements: Mean (fold change relative to vehicle control): 1.812 fold change
CCL18; Conc. 40 X
  CCL18 Measurements: Mean (fold change relative to vehicle control): 1.887 fold change
CCL18; Donor 1
  IL-4 induced CCL18 secretion (fold change relative to vehicle control): significantly increased
CCL18; Donor 2
  IL-4 induced CCL18 secretion (fold change relative to vehicle control): significantly increased
